Measurements from patent publication US5143925A, “Alteration of rate and character of hair growth” (priority 1991, dated 1992).

Tests used:
[1] = test system: flank organs of male intact Golden Syrian hamsters; assay: Hamster flank organ hair growth (hair mass) after topical application; assay type: in vivo; conditions: for Flank Organ Hair Mass, Treated: topical 10-25 μl once a day; for Flank Organ Hair Mass, Treated / % Inhibition of hair mass (+SEM): 18 days; for % Inhibition of hair mass (+SEM): treated organ vs vehicle-treated organ of same animal; for Hair shaft structure, microscopic examination: hair shafts harvested from flank organs
Method: A vehicle or carrier was prepared having the following composition:
The compound BBD was mixed with separate portions of the foregoing vehicle to provide specimens containing 1,2,5,10, and 20% by weight of the inhibitor respectively.
Five groups (seven or eight animals in each group) of male intact Golden Syrian hamsters were provided. These animals are considered acceptable models for human beard hair growth in that they display oval shaped flank organs, one on each side, each about 8 mm. in major diameter, which grow thick black and coarse hair similar to human beard hair. These organs produce hair in response to androgens in the hamster. The flank organs of each hamster were depilated by applying a thioglycolate-based chemical depilatory (Surgex), and to one organ of each animal was applied 10-25 μl. of vehicle alone once a day, while to the other organ of each animal was applied an equal amount of vehicle containing inhibitor. After 2 1/2 weeks of such applications (five days a week for a total of eighteen days), the flank organs were shaved and the amount of recovered hair (hair mass) from each was weighed. The extent of reduction in hair growth by the inhibitor was expressed as the percent decrease in hair mass on the organ treated with inhibitor as compared to the organ treated with vehicle alone. As a control, one additional control group of eight animals had both flank organs of each animal treated with vehicle alone.

[2] = test system: transglutaminase; assay: Inhibiting effect on transglutaminase activity; assay type: biochemical

`O=C(N[C@@H](Cc1ccccc1)C(=O)NCC1CC(Br)=NO1)OCc1ccccc1` (some centres unmarked) [BBD, 3-bromo-5-(N-benzyloxycarbonyl-1-phenylalanamido-methyl)-4,5-dihydroisoxazole] was tested, and the “Flank Organ Hair Mass, Treated” value ([1]; 1% BBD in vehicle) was 2.614 ± .19 mg ± SEM, the “% Inhibition of hair mass (+SEM)” value ([1]; 1% BBD) was 19.54 ± 6.07% and the “Length of the hair, visual inspection during treatment” value ([1]; 1-20% BBD, topical, hamster flank organ) was “decrease in the length of the hair dependent upon the concentration of the inhibitor”. For the same compound, the “Flank Organ Hair Mass, Treated” value ([1]; 2% BBD in vehicle) was 2.827 ± .23 mg ± SEM, the “% Inhibition of hair mass (+SEM)” value ([1]; 2% BBD) was -3.63 ± 9.91% and the “Flank Organ Hair Mass, Treated” value ([1]; 5% BBD in vehicle) was 2.279 ± .28 mg ± SEM. The “% Inhibition of hair mass (+SEM)” value ([1]; 5% BBD) was 22.83 ± 9.62%, the “Hair shaft structure, microscopic examination” value ([1]; 5% and 10% concentrations of BBD) was “less dramatic but visually obvious changes in the medulla of hair shafts” and the “Flank Organ Hair Mass, Treated” value ([1]; 10% BBD in vehicle) was 1.389 ± .12 mg ± SEM. The “% Inhibition of hair mass (+SEM)” value ([1]; 10% BBD) was 56.08 ± 4.64%, the “Flank Organ Hair Mass, Treated” value ([1]; 20% BBD in vehicle) was “.333 ± .06 mg ± SEM” and the “% Inhibition of hair mass (+SEM)” value ([1]; 20% BBD) was 87.87 ± 1.54%. The “Hair shaft structure, microscopic examination” value ([1]; 20% concentration of BBD) was “dramatic deterioration of the hair shaft structure including disorganization of the medulla and cuticle” and the “Inhibiting effect on transglutaminase activity” value [2] was “dose related”.
